Test systems include CCRF-CEM leukemia; OVCAR-4 ovarian; TK-10 renal; NCI-H226 lung; HS 578T breast; MALME-3M melanoma; RPMI-8226 leukemia; UACC-62 melanoma; EKVX NSCLC; RXF 393 renal.
What all share (experiment): NCI tumour cell line growth inhibition, 48 h

The structures appear in SMILES notation. “And” between values parts separate entries of the source, which are not always exact repeats. Equal entries are not always repeated.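 1) Cells in 96-well plates. 2) Compound, 48 h, 5 concentrations. 3) Linear interpolation between surrounding doses. 4) Unreached endpoint = highest concentration. GI50: concentration for 50% inhibition of growth. TGI denotes the concentration required for complete inhibition of growth.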 Where only a bound is given, the exact number is not on record here.

On to `O=C1C2C(C(=O)[N]1[Hg][c]1ccccc1)C1(Cl)C(Cl)=C(Cl)C2(Cl)C1(Cl)Cl` (stereo unspecified), for which the GI50 in the assay on CCRF-CEM leukemia was 0.365 µM; in the assay with OVCAR-4 ovarian, 1.09 µM; with TK-10 renal, 1.51 µM; in the assay on NCI-H226 lung it was 1.59 µM; in the assay on HS 578T breast, 0.771 µM; in the assay with MALME-3M melanoma it was 1.32 µM. Also, the GI50 in the assay on RPMI-8226 leukemia was 1.64 µM; in the assay with UACC-62 melanoma it was 1.37 µM; in the assay on EKVX NSCLC, 6.91 µM; in the assay with RXF 393 renal, 0.423 µM. Further, the TGI in the assay with CCRF-CEM leukemia is 10.4 µM; in the assay on OVCAR-4 ovarian it was 4.15 µM; in the assay with TK-10 renal it was 2.86 µM; in the assay on NCI-H226 lung, 4.18 µM; in the assay on HS 578T breast, over 100 µM; with MALME-3M melanoma it was 3.02 µM. Further, the TGI came to 5.94 µM with RPMI-8226 leukemia, 2.72 µM with UACC-62 melanoma, 25.2 µM in the assay with EKVX NSCLC and 1.59 µM in the assay with RXF 393 renal.
For the compound `CC[C@](O)(C(=O)O)c1cc2n(c(=O)c1CO)Cc1cc3ccccc3nc1-2`, the GI50 with CCRF-CEM leukemia was under 0.0025 µM; with OVCAR-4 ovarian, 0.305 µM and 0.0715 µM; with TK-10 renal it was 1.1 µM; with HS 578T breast, 1.48 µM; in the assay on MALME-3M melanoma it was 0.0642 µM and 0.272 µM; with RPMI-8226 leukemia, 0.00677 µM and 0.0458 µM. The GI50 in the assay with UACC-62 melanoma was 0.00348 µM; with EKVX NSCLC, 0.283 µM and 0.63 µM; in the assay with RXF 393 renal, 0.0278 µM and < 0.0225 µM. The TGI in the assay with CCRF-CEM leukemia was 4.04 µM; in the assay with OVCAR-4 ovarian it was 7.5 µM and 0.856 µM; in the assay with TK-10 renal, 4.38 µM and > 24.8 µM; in the assay with NCI-H226 lung it was 0.866 µM and 0.332 µM and 1.62 µM; with HS 578T breast it was 25 µM and 13.7 µM; in the assay with MALME-3M melanoma it was 4.75 µM and 4.12 µM and 0.807 µM. Moreover, the TGI with UACC-62 melanoma was 0.121 µM and 0.0422 µM and 0.0555 µM; in the assay on RXF 393 renal it was 1.1 µM and 0.476 µM and 0.15 µM.
In the case of `Cc1sc2nc(-c3ccccn3)c(/C=N/N=C(N)N)n2c1C`, the GI50 in the assay with CCRF-CEM leukemia is 6.02 µM; in the assay on OVCAR-4 ovarian, 5.15 µM; in the assay on TK-10 renal, 5.89 µM; with NCI-H226 lung it was 5.74 µM; in the assay on HS 578T breast, 12.7 µM; in the assay with MALME-3M melanoma, 4.53 µM. The GI50 with RPMI-8226 leukemia was 4.23 µM; in the assay with UACC-62 melanoma, 4.19 µM; with EKVX NSCLC, 8.63 µM; in the assay on RXF 393 renal, 5.56 µM. The TGI in the assay with CCRF-CEM leukemia came to 19 µM; in the assay with OVCAR-4 ovarian, 13.3 µM; in the assay with TK-10 renal, 11.2 µM; in the assay with NCI-H226 lung, 15.5 µM; in the assay with HS 578T breast, 27.7 µM; with MALME-3M melanoma it was 9.81 µM. The TGI in the assay with RPMI-8226 leukemia is 12.1 µM; with UACC-62 melanoma, 10.4 µM; with EKVX NSCLC, 19.8 µM; in the assay on RXF 393 renal, 16.1 µM.
In the case of `O=C(Cc1ccc(/C=C/C(=O)c2ncc[nH]2)cc1)Nc1ccc(Br)cc1`, the GI50 is 0.759 µM with CCRF-CEM leukemia; 3.42 µM in the assay on OVCAR-4 ovarian; 4.31 µM in the assay with TK-10 renal; 3.31 µM in the assay with NCI-H226 lung; 7.94 µM with HS 578T breast; 3.12 µM in the assay with MALME-3M melanoma. Also, the GI50 with RPMI-8226 leukemia is 0.705 µM; in the assay with UACC-62 melanoma, 2.85 µM; in the assay with EKVX NSCLC, 4.58 µM; in the assay with RXF 393 renal, 2.4 µM. The TGI in the assay on CCRF-CEM leukemia is over 16.7 µM; in the assay on OVCAR-4 ovarian, over 16.7 µM; in the assay on TK-10 renal, 12.6 µM; in the assay with NCI-H226 lung, 10.1 µM; in the assay with HS 578T breast, over 16.7 µM; in the assay with MALME-3M melanoma it was 7.69 µM. Besides, the TGI was 4.06 µM in the assay on RPMI-8226 leukemia, 6.11 µM with UACC-62 melanoma, over 16.7 µM in the assay on EKVX NSCLC and 4.82 µM in the assay on RXF 393 renal.
With `COc1cc(Nc2ncc3c(n2)-c2ccc(Cl)cc2C(c2c(F)cccc2OC)=NC3)ccc1C(=O)O`, the GI50 was 0.579 µM in the assay with CCRF-CEM leukemia; 3.7 µM in the assay with OVCAR-4 ovarian; 4.61 µM with TK-10 renal; 2.06 µM with NCI-H226 lung; 3.3 µM in the assay on HS 578T breast; 16.9 µM with MALME-3M melanoma. The GI50 in the assay with RPMI-8226 leukemia was 12 µM; in the assay with UACC-62 melanoma, 3.9 µM; in the assay with EKVX NSCLC, 13.1 µM; in the assay with RXF 393 renal it was 1.59 µM. Moreover, the TGI is over 65.9 µM with CCRF-CEM leukemia; over 86.2 µM with OVCAR-4 ovarian; 24.4 µM with TK-10 renal; 18.1 µM with NCI-H226 lung; over 71.3 µM in the assay on HS 578T breast; over 89.1 µM in the assay on MALME-3M melanoma. Further, the TGI in the assay with RPMI-8226 leukemia is over 65 µM; with UACC-62 melanoma it was 30.1 µM; with EKVX NSCLC, 69.1 µM; with RXF 393 renal, 13.1 µM.
Regarding `O=C(c1ccc(O)cc1)c1ccc(C(=O)c2ccc(O)cc2)cc1`, the GI50 is over 100 µM in the assay on OVCAR-4 ovarian; over 100 µM in the assay on TK-10 renal; 33.5 µM in the assay on NCI-H226 lung; 27.4 µM in the assay with HS 578T breast; 35.7 µM in the assay with MALME-3M melanoma; 5.21 µM with RPMI-8226 leukemia. The GI50 with UACC-62 melanoma is over 100 µM; in the assay on EKVX NSCLC it was 8.33 µM; in the assay on RXF 393 renal it was 26.5 µM. The TGI with OVCAR-4 ovarian, in the assay with TK-10 renal, with NCI-H226 lung, in the assay on HS 578T breast, with MALME-3M melanoma and in the assay with RPMI-8226 leukemia was over 100 µM each time. Besides, the TGI was over 100 µM with UACC-62 melanoma, over 100 µM with EKVX NSCLC and 98.3 µM in the assay on RXF 393 renal.
For `Cc1c(N2C(=O)/C(=C\c3ccc(O)cc3)N=C2c2ccccc2)c(=O)n(-c2ccccc2)n1C`, the GI50 in the assay on OVCAR-4 ovarian, in the assay with TK-10 renal, in the assay on NCI-H226 lung, in the assay with HS 578T breast, with MALME-3M melanoma and with RPMI-8226 leukemia was over 100 µM throughout. The GI50 with UACC-62 melanoma, in the assay with EKVX NSCLC and in the assay with RXF 393 renal was over 100 µM each time. Moreover, the TGI with OVCAR-4 ovarian, in the assay with TK-10 renal, in the assay with NCI-H226 lung, in the assay on HS 578T breast, in the assay with MALME-3M melanoma and in the assay on RPMI-8226 leukemia was over 100 µM each time. Moreover, the TGI with UACC-62 melanoma, in the assay on EKVX NSCLC and with RXF 393 renal was over 100 µM each time.
Regarding `Cn1cc(-c2csc(-c3cn(CCN4CCOCC4)c4ccc(F)cc34)n2)c2cccnc21`, the GI50 was 3.07 µM in the assay on CCRF-CEM leukemia; 3.28 µM with TK-10 renal; 1.86 µM in the assay with NCI-H226 lung; 3.75 µM in the assay on HS 578T breast; 2.88 µM with MALME-3M melanoma; 1.68 µM with RPMI-8226 leukemia. Further, the figures for the GI50 with UACC-62 melanoma, in the assay with EKVX NSCLC and in the assay on RXF 393 renal were 2.06 µM, 2.52 µM and 2.58 µM, respectively. For the same compound, the TGI with CCRF-CEM leukemia is 9.18 µM; in the assay on TK-10 renal, 18.8 µM; in the assay on NCI-H226 lung, 5.51 µM; with HS 578T breast it was over 100 µM; in the assay on MALME-3M melanoma, 12.3 µM; in the assay with RPMI-8226 leukemia it was 4.96 µM. The TGI was 5.34 µM with UACC-62 melanoma, 26.6 µM in the assay with EKVX NSCLC and 7.23 µM in the assay on RXF 393 renal.

These data come from PubChem BioAssay (NCI).
